In patent publication US6218406A, “Farnesyl transferase inhibitors, their preparation, the pharmaceutical compositions which contain them and their use in the preparation of medicaments” (Aventis Pharma S.A., priority 1996, dated 2001) one finds IC50 and Tumour stabilization data, which are given here for two compounds.

One assay concerns the target farnesyl transferase (Homo sapiens, UniProt P49354+P49356). The assay can be described thus: Farnesyl transferase inhibition, [3H]-farnesylation of biotinylated K-ras C-terminal peptide (SPA assay). In kind it is biochemical. As to conditions: K-Ras substrate; 60 min at 37° C.; mean of two IC50 values; read-out: In vitro inhibitory activity (K-Ras) IC50.
The test system of assay [1] is HCT116 human colic carcinoma line. Briefly: In vivo antitumour test, human carcinoma grafted subcutaneously into mice. As to conditions: 400 mg/kg/adm., orally. The protocol:
The influence of the compounds according to the invention, administered to mice, on the growth of carcinomas of human origin grafted subcutaneously into these mice was studied.
On day 0 of the experiment, the mice received a tumour fragment (30-60 mg) bilaterally under the skin using a trocar. The bilateral implantation of the tumours ensured a more uniform tumour weight per mouse and thus made it possible to reduce the number of animals per group. The mice were then divided into the different treated and untreated groups.
The product was suspended in an aqueous solution at concentrations that ranged from […], corresponding to doses of 0.1 to 10,000 mg/kg.
The treatments or their possible excipient were administered every day orally, at a maximum volume of 0.2 ml, the duration of administration depending on the doubling time of the tumour.
The tumours were measured 2 to 3 times per week, using a calliper rule, according to two measurements in mm, which were subsequently converted into tumour weight according to the following formula:
tumour weight (mg)=Length (mm)×width^2 (mm^2)/2
An active product was a product which made it possible to limit the growth of the tumour after it had been administered.

SMILES strings stand for the structures.

Usually IC50 stands for the midpoint of a concentration-inhibition curve. `C=C(C(=O)N1C[C@H]2[C@@]3(c4ccc(C)cc4)CC[C@H](c4ccccc43)[C@@]2(C(=O)O)C1)c1ccccc1OC` (single isomer, unassigned) [Example 3, dextrorotatory enantiomer of (3aRS,4SR,9RS,9aRS)-4,9-ethano-2-[2-(2-methoxyphenyl)propenoyl]-9-(4-methylphenyl)-2,3,3a,4,9,9a-hexahydro-1H-benzo[f]isoindole-3a-carboxylic acid]: the IC50 on farnesyl transferase turned out to be 28 nM. In addition, the Tumour stabilization entry in assay [1] is “Tumour stabilization”.
As to `C=C(C(=O)N1CC2C3(c4ccc(OC)cc4)CCC(c4ccccc43)C2(C(=O)NC(C(=O)O)c2ccccc2)C1)c1ccccc1OC` (stereo not drawn) [Example 81, (RS)- and (SR)-2-{(3aRS,4SR,9SR,9aRS)-4,9-ethano-9-(4-methoxyphenyl)-2-[2-(2-methoxyphenyl)propenoyl]-2,3,3a,4,9,9a-hexahydro-1H-benzo[f]isoindole-3a-carbonylamino}phenylacetic Acids], the 50% inhibitory concentration (IC50) at farnesyl transferase stood at 18 nM.
